Experimental data: patent EP4635958A1, “PYRIMIDINE-CONTAINING POLYCYCLIC DERIVATIVE INHIBITOR, AND PREPARATION METHOD THEREFOR AND USE THEREOF” (Shanghai Hansoh Biomedical Co., Ltd., priority 2022, dated 2024)
Like-named read-outs stand apart in the source and are kept apart here. One block for each compound: values may come before it.

What was measured:
GP2D = experiment: Inhibition of proliferation of KRAS G12D mutant tumor cell line GP2D (CellTiter-Glo); details: read-out: GP2D IC50
[1] = test system: human pancreatic cancer cell line (HPAC); experiment: Antitumor efficacy in mouse transplanted tumor model of human pancreatic cancer cell line (HPAC); format: in vivo, mice (BALB/c nude); details: Table 12, HPAC xenograft, 100mpk, PO*BID; for Tumor volume (mm^3, Mean ± SD) Day 0: Day 0 (baseline)
From the text: 8-10 week old female conventional immunodeficient mice (BALB/c nude) with a body weight of 18 g-22 g were used as experimental animals, and a transplanted tumor model of human pancreatic cancer cell line (HPAC) was used to conduct in vivo efficacy experiments to test the anti-tumor results of the example compounds after gavage administration.
The example compounds of the present invention, made in house.
A certain amount of the example compound was weighed, and an appropriate amount of 10% vehicle (Solutol HS15) was added. The mixture was stirred on a magnetic stirrer for 0.5 h to formulate a homogeneous suspension at the desired concentration.
Human pancreatic cancer cell line (HPAC) was derived from COBIOER BIOSCIENCES CO., LTD, cultured on DMEM/F12 medium (Gibco, 11330-032) supplemented with 10% fetal calf serum (Gibco, 10091-148), 1×Insulin (51500-056, Gibco) and 10 ng/ml of EGF (PHG0311, Gibco) and observed under a microscope (Thermo Fisher, 311). The cells were routinely passaged when the cells reached 80%-90% confluence in the culture flask. The passaged cells were cultured in a 37°C, 5% CO2 incubator (Thermo Fisher, 311).
Under aseptic conditions, human pancreatic cancer cells (HPAC) in the logarithmic growth phase were harvested using 0.25% trypsin-EDTA (Gibco, 25200-056), washed and resuspended with phosphate buffer. The cell suspension was mixed with Matrigel (Corning, 356234) at a 1 : 1 ratio (v/v) and implanted subcutaneously into the right anterior dorsal region of immunodeficient mice (BALB/c nude). Each mouse was inoculated with 3*10^6 cells in a volume of 100 microliters (µL). After inoculation, when the tumor volume reached 100-200 mm^3, the mice would be evenly randomized into 5 groups based on the tumor size, with 5 mice per group, for in vivo efficacy experiments. The negative control group was the vehicle group.
Mode of administration: The example compounds were administered orally.
Twice a week, the long and short diameters of the tumor were measured using a vernier caliper, and the tumor volume (mm^3) was calculated using the formula: V = 0.5*D*d*d, where D and d are the long and short diameters of the tumor, respectively. The anti-tumor efficacy was determined by dividing the average increase in tumor volume of compound-treated animals by the average increase in tumor volume of untreated animals. The calculation formula for tumor inhibition rate was: When there is no tumor regression, TGI(%) = 100-[(Vt-V0) administration group/(Vt-V0) vehicle control group]*100%. When tumor regression occurs, TGI(%) = [1-(Vt-V0) administration group/V0 vehicle control group]*100%. All animals were euthanized after the experiment.

p-ERK in AGS cells = experiment: Inhibition of p-ERK in AGS cells (LANCE Ultra phospho-ERK1/2 kit); format: cell-based; details: read-out: AGS_pERK IC50
Description: 1. Experimental objective: The inhibition activity of the example compounds on the phosphorylated ERK level in KRAS G12D mutant cells AGS was determined. 2. Experimental instruments: • 2.1 Instruments: Envison; Pipette (Eppendorf & Rainin) • 2.2 Reagents: AGS cells were purchased from COBIOER BIOSCIENCES CO., LTD, with a catalog number of CBP60476; Phosphorylated ERK1/2 (T202-Y204) LANCE Ultra Cellular Detection Kit was purchased from PerkinElmer, with a catalog number of TRF4000M; RPMI 1640 was purchased from Gibco, with a catalog number of 22400071; FBS was purchased from Gibco, with a catalog number of 10091148; PBS was purchased from Gibco, with a catalog number of 10010023; trypsin was purchased from Gibco, with a catalog number of 25200056; cell culture plates were purchased from Corning Company, with a catalog number of 3610; White opaque OptiPlate™-384 plates were purchased from PerkinElmer, with a catalog number of 6007290. 3. Experimental method: When AGS cells were cultured to appropriate confluence, the AGS cells were collected, and the cell density was adjusted to 4 × 10^5/mL using complete culture medium. The cell suspension was plated onto a 96-well plate at 100 µL per well, and the plate was placed in the incubator at 37°C and 5% CO2 for adherent culture overnight. Solutions of the compound with different concentrations were formulated using DMSO and complete culture medium, and a vehicle control was set up. The solutions of the compound were added to the 96-well plate at 25 µL per well, and the plate was placed in the incubator at 37°C and 5% CO2 for further culture for 2 h. Then, the supernatant of the cell culture plate was discarded, 50 µL of lysis buffer was added to each well, the cells were lysed at room temperature under shaking for 30 min, then placed in a centrifuge and centrifuged at 1000 rpm for 1 min. 15 µL of supernatant was transferred to a 384-well plate, 5 µL of detection mixture was added to each well (Eu-labeled anti-ERK1/2 (T202-Y204) Antibody at a final detection concentration of 0.5 nM and ULight labeled anti-ERK1/2 Antibody at a final detection concentration of 5 nM), centrifuged at 1000 rpm for 1 min, mixed evenly, and reacted at room temperature overnight. The plate was read using Envison and the signal values at the emission wavelengths of 620 nm and 665 nm were detected using a time-resolved fluorescence program. 4. […] Graphpad Prism software was used to fit the concentration and inhibition rate to a nonlinear regression curve, so as to obtain the IC50 value. Table 5: Inhibition activity of the compounds on p-ERK in AGS cells

[2] = Pharmacokinetic determination in mice (IV and PO, plasma, LCMS/MS); format: in vivo, Balb/c mice; details: male, Balb/c, mouse, in vivo
In short: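 Male Balb/c mice, fasted overnight (n=3 per route): PO 30 mg/kg in 10% Captisol/50 mM citrate pH 5.0, or IV 1 mg/kg in 5% DMSO/10% Solutol HS15/85% PBS. Orbital blood sampled predose to 24 h; EDTA plasma analysed by LC-MS/MS.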

[3] = Pharmacokinetic determination in rats (IV and PO, plasma, LCMS/MS); format: in vivo, SD rats; details: male, SD, rat, in vivo
In short: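 Male SD rats (3/group), fasted overnight, dosed PO at 30 mg/kg in 10% Captisol/50 mM citrate pH 5.0 or IV at 1 mg/kg in 5% DMSO/10% Solutol HS15/85% PBS. Jugular plasma (EDTA-2K) sampled predose to 24 h; analysed by LCMS/MS.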

[4] = test system: human colorectal cancer cell line (GP2D); experiment: Anti-tumor efficacy in mouse transplanted tumor model of human colorectal cancer cell line (GP2D); format: in vivo, mice (BALB/c nude)
KRAS WT = KRAS WT (Homo sapiens, UniProt P01116); experiment: KRAS WT biochemical assay (Table 1, no method of its own); format: binding; details: read-out: KRAS WT Biochemical IC50
Chain of KRAS WT (P01116 1-188 isoform P01116-2): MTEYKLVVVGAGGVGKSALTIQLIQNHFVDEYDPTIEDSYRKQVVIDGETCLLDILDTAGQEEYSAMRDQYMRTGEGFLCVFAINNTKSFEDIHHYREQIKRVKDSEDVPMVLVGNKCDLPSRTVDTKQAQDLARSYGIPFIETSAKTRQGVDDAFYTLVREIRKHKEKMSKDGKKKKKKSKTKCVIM

KRAS G12D-SOS1 = molecular target: T1, KRAS G12D-SOS1 (Homo sapiens, UniProt P01116, G12D); experiment: Blocking of KRAS G12D-SOS1 protein binding (Cisbio KRAS-G12D/SOS1 Binding Assay Kit, time-resolved fluorescence); details: KRAS G12D-GTP and SOS1 protein, signal ratio 665nm/620nm; read-out: G12D SOS1 biochemical IC50
T1 construct: purchased Cisbio 63ADK000CB17PEG
T1 sequence (P01116 1-188 isoform P01116-2 G12D): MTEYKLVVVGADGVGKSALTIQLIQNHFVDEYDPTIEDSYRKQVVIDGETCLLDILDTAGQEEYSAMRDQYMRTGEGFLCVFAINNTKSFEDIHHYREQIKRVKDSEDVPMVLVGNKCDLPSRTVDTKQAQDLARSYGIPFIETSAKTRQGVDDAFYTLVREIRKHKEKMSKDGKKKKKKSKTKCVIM
From the text: • 1. Experimental objective: […] Experimental reagents and instruments The centrifuge (5810R) was purchased from Eppendorf; the pipette was purchased from Eppendorf or Rainin; and the microplate reader was purchased from BioTek (United States) with a model of SynergyH1 multifunctional microplate reader. KRAS-G12D/SOS1 Binding Assay Kit was purchased from Cisbio, with a catalog number of 63ADK000CB17PEG; GTP was purchased from Sigma, with a catalog number of G8877; 384-well plate was purchased from Perkin Elmer, with a catalog number of 6007299. The Diluent buffer in the kit was used to dilute the compound into 10× compound solution of different concentrations, and 2 uL was added to each well of the 384-well plate. Tag2-KRAS G12D protein and GTP were formulated into a mixed solution of 5×KRAS G12D-GTP protein using Diluent buffer, and Tag1-SOS1 protein was formulated into a 5×SOS1 protein solution using Diluent buffer. Each solution was added to the 384-well plate separately at 4 uL per well, and incubated at room temperature for 15 min. A mixed solution of 2× anti-Tag1-Tb^3+ and anti-Tag2-XL665 formulated using detection buffer was added to the 384-well plate at 10 µL per well, and incubated at 4°C in the dark for 3 h.

AsPC-1 = experiment: Inhibition of proliferation of KRAS G12D mutant tumor cell line AsPC-1 (CellTiter-Glo); format: cell-based; details: Homo sapiens, ASPC1, about 72 h
Description: 1. Experimental objective: The inhibition activity of the example compounds on the proliferation of 5 KRAS G12D mutant cell lines SNU-1, HPAF-II, Panc0403, AsPC-1 and GP2D was determined. 2. Experimental instruments: • 2.1 Instruments: Microplate reader (BioTek Synergy H1); Pipette (Eppendorf & Rainin). • 2.2 Reagents: HPAF-II, PANC0403, AsPC-1 and GP2D were purchased from COBIOER BIOSCIENCES CO., LTD; SNU-1 was purchased from the cell bank of Chinese Academy of Sciences, Cell Titer-Glo was purchased from Promega, with a catalog number of G7573; RPMI 1640 was purchased from Gibco, with a catalog number of 22400089; DMEM was purchased from Gibco, with a catalog number of 11995065; FBS was purchased from Gibco, with a catalog number of 10091148; PBS was purchased from Gibco, with a catalog number of 10010023; trypsin was purchased from Gibco, with a catalog number of 25200056; cell culture plates were purchased from Corning Company, with a catalog number of 3610. 3. Experimental method: When SNU-1, HPAF-II, Panc0403, AsPC-1 or GP2D cells were cultured to the appropriate confluence, and the SNU-1, HPAF-II, Panc0403, AsPC-1 or GP2D cells were collected. The cells were adjusted to the appropriate cell density using complete culture medium, the cell suspension was plated onto a 96-well plate at 90 µL per well, and the plate was placed in the incubator at 37°C and 5% CO2 for adherent culture overnight. Solutions of the compound with different concentrations were formulated using DMSO and culture medium. A vehicle control was set up. The solutions of the compound were added to the 96-well plate at 10 µL per well, and the plate was placed in the incubator at 37°C and 5% CO2 for further culture for about 72 h. Then, CellTiter-Glo solution was added, and the obtained mixture was shaken and mixed evenly, incubated in the dark for 10 min, and read with a BioTek Synergy H1 microplate reader. 4. Experimental data processing method: The luminescence signal value was used to calculate the inhibition rate. Graphpad Prism software was used to fit the concentration and inhibition rate to a nonlinear regression curve, so as to obtain the IC50 value. 5. Experimental results: Table 2: Determination of the inhibition activity of the compounds on the proliferation of KRAS G12D mutant tumor cell line GP2D

Compound: 3-chloro-5-((5S,5aS,6R,9S)-5-ethyl-1-fluoro-12-((1-((4-(fluoromethylene)piperidin-1-yl)methyl-d2)cyclopropyl)methoxy-d2)-5a,6,7,8,9,10-hexahydro-5H-4-oxa-3,10a,11,13,14-pentaaza-6,9-methylnaphtho[1,8-ab]hept-2-yl)-4-(trifluoromethyl)aniline [Example 330]
IC50 (GP2D; proliferation, about 72 h, CellTiter-Glo): 0.17 nM | Tumor volume (mm^3, Mean ± SD) Day 0 [1]: 468 mm^3 | TGI(%) Day 14 [1]: 110.18% | ΔT/ΔC(%) Day 14 [1]: 43.78% | Tumor volume (mm^3, Mean ± SD) Day 21 [1]: 418 mm^3 | IC50 (p-ERK in AGS cells; AGS cells, 2 h with compound): 3.8 nM

AUC ([2]; iv, 1 mg/kg): 305 ng·h/mL | C0 ([2]; iv, 1 mg/kg): 854 ng/mL | clearance ([2]; iv, 1 mg/kg): 55 mL/min/kg | half-life ([2]; iv, 1 mg/kg): 11.1 h | Cmax ([2]; po, 30 mg/kg): 11 ng/mL | Tmax ([2]; po, 30 mg/kg): 2 h | AUC ([3]; iv, 1 mg/kg): 367 ng·h/mL | C0 ([3]; iv, 1 mg/kg): 2490 ng/mL | clearance ([3]; iv, 1 mg/kg): 45 mL/min/kg | half-life ([3]; iv, 1 mg/kg): 2.7 h | Cmax ([3]; po, 30 mg/kg): 11 ng/mL | Tmax ([3]; po, 30 mg/kg): 2 h
Compound: C#Cc1c(F)ccc2cc(O)cc(-c3ncc4c(N5CC6CCC(C5)N6)nc(OC[C@@]56CCCN5C[C@H](F)C6)nc4c3F)c12 [MRTX-1133, reference compound]
Tumor volume (mm^3, Mean ± SD) Day 0 ([4]; 10mpk, IV*BID, Day 0): 167 mm^3 | TGI(%) Day 14 ([4]; 10mpk, IV*BID, Day 14): 143.79% | Tumor volume (mm^3, Mean ± SD) Day 14 ([4]; 10mpk, IV*BID, Day 14): 94 mm^3 | ΔT/ΔC(%) Day 14 ([4]; 10mpk, IV*BID, Day 14): 11.89% | tumor inhibition effect (in words) ([4]; intravenous administration dose of 10 mg/kg): inhibition effect of tumor regression

Compound: C#Cc1c(F)ccc2cc(O)cc(-c3nc4c5c(nc(OCC6(CN7CCC(=CF)C7)CC6)nc5c3F)N3CC5CCC(N5)C3CO4)c12 (stereo not drawn) [Example 15-1]
IC50 (KRAS WT): 26 nM | IC50 (GP2D; Homo sapiens, GP2d, 72 h): 0.76 nM | IC50 (KRAS G12D-SOS1): 3 nM

Compound: [2H]C([2H])([2H])[C@@H]1Oc2nc(-c3cc(N)cc(Cl)c3C(F)(F)F)c(F)c3nc(OC([2H])([2H])C4(C([2H])([2H])N5CCC(=NOC)CC5)CC4)nc(c23)N2C[C@H]3CC[C@H](N3)[C@@H]12 [Example 341, 1-((1-((((5S,5aS,6S,9R)-2-(5-amino-3-chloro-2-(trifluoromethyl)phenyl)-1-fluoro-5-(methyl-d3)-5a,6,7,8,9,10-hexahydro-5H-4-oxa-3,10a,11,13,14-pentaaza-6,9-methylnaphtho[1,8-ab]heptene-12-yl)oxy)methyl-d2)cyclopropyl)methyl-d2)piperidin-4-one O-methyloxime]
IC50 (GP2D; Homo sapiens, GP2d, 72 h): 0.1 nM | Tumor volume (mm^3, Mean ± SD) Day 0 [1]: 469 mm^3 | TGI(%) Day 14 [1]: 161.42% | ΔT/ΔC(%) Day 14 [1]: 18.73% | Tumor volume (mm^3, Mean ± SD) Day 21 [1]: 180 mm^3 | IC50 (AsPC-1): 2.6 nM | IC50 (p-ERK in AGS cells; Homo sapiens, AGS, 2 h): 4.2 nM
